In PMC11167047 (Cell Death Discovery, 2024):

Tests used:
Assay in all cases: kinome screen (33PanQinase)
Type in all cases: biochemical
[1] = molecular target: T1, MYLK3 (Homo sapiens, UniProt Q32MK0)
T1 construct: purchased Reaction Biology Europe GmbH (formerly ProQinase)
T1 sequence (Q32MK0 1-819): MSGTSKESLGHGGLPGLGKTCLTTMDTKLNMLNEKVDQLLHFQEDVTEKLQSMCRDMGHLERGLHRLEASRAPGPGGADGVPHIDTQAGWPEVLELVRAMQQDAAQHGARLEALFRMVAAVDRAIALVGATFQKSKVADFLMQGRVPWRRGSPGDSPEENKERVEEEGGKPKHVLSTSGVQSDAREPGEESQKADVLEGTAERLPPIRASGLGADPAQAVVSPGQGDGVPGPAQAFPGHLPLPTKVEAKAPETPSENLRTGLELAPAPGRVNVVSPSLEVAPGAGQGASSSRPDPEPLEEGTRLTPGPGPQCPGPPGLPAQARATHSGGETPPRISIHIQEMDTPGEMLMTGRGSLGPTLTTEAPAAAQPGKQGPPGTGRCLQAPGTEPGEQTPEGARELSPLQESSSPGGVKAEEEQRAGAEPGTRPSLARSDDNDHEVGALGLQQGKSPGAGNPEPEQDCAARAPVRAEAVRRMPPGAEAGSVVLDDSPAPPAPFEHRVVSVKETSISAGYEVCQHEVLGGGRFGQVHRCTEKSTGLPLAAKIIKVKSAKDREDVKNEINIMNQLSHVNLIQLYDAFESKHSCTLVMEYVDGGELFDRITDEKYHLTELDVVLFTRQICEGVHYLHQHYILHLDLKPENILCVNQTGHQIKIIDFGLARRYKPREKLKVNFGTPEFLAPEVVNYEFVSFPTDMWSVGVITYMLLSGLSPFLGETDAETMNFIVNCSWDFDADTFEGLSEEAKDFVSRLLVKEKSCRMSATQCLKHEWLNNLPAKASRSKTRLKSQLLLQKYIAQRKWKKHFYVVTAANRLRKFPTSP
Description: (§1) The Kinome Screening was performed by Reaction Biology Europe GmbH (http://reactionbiology.com; Freiburg i. Br., Germany).

[2] = molecular target: T2, MEKK3 (Homo sapiens, UniProt Q99759)
T2 construct: purchased Reaction Biology Europe GmbH (formerly ProQinase)
T2 sequence (Q99759 1-626): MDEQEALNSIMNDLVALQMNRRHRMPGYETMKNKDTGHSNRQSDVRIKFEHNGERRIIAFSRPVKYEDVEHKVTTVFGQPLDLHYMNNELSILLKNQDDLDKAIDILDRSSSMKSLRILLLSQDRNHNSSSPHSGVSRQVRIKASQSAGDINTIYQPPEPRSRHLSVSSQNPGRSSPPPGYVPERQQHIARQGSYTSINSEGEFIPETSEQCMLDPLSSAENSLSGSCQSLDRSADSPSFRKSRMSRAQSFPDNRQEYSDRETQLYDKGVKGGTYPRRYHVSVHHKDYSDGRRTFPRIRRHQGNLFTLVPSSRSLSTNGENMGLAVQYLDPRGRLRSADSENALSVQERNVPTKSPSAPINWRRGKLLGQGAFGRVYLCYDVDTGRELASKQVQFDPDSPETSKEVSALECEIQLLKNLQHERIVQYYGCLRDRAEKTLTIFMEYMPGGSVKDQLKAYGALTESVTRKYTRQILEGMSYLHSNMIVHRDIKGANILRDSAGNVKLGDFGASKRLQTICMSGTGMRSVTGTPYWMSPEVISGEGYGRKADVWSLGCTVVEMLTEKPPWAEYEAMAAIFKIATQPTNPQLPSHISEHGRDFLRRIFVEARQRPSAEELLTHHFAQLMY
Description: as §1

[3] = molecular target: T3, ALK (Homo sapiens, UniProt Q9UM73)
T3 construct: purchased Reaction Biology Europe GmbH (formerly ProQinase)
Description: as §1

[4] = molecular target: T4, RON (Homo sapiens, UniProt Q04912)
T4 construct: purchased Reaction Biology Europe GmbH (formerly ProQinase)
Description: as §1

[5] = molecular target: T5, AKT2 (Homo sapiens, UniProt P31751)
T5 construct: purchased Reaction Biology Europe GmbH (formerly ProQinase)
Description: as §1

[6] = molecular target: T6, MASTL (Homo sapiens, UniProt Q96GX5)
T6 construct: purchased Reaction Biology Europe GmbH (formerly ProQinase)
T6 sequence (Q96GX5 1-879): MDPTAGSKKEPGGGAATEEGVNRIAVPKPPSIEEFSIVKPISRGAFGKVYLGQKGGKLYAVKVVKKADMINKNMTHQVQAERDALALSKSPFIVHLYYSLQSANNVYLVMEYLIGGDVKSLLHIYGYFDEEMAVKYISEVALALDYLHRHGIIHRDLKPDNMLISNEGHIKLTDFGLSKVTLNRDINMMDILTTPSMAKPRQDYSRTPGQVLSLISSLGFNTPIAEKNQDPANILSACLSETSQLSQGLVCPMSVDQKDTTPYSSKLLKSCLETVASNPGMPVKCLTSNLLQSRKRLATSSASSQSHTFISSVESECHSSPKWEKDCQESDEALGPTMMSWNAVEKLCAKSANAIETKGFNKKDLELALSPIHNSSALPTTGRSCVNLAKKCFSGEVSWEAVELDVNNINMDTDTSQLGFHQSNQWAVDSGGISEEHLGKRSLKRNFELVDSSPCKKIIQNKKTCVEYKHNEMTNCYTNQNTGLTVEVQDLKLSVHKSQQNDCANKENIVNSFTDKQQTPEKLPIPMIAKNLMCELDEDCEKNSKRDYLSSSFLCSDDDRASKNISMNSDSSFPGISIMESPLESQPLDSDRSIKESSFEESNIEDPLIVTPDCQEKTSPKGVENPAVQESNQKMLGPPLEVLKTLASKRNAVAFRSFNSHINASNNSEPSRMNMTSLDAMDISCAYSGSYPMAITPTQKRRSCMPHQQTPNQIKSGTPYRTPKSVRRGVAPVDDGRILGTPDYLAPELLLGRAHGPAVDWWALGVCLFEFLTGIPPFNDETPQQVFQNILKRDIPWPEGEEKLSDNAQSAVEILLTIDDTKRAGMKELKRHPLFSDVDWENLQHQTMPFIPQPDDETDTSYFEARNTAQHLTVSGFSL
Description: as §1

T4 sequence (Q04912 25-1400): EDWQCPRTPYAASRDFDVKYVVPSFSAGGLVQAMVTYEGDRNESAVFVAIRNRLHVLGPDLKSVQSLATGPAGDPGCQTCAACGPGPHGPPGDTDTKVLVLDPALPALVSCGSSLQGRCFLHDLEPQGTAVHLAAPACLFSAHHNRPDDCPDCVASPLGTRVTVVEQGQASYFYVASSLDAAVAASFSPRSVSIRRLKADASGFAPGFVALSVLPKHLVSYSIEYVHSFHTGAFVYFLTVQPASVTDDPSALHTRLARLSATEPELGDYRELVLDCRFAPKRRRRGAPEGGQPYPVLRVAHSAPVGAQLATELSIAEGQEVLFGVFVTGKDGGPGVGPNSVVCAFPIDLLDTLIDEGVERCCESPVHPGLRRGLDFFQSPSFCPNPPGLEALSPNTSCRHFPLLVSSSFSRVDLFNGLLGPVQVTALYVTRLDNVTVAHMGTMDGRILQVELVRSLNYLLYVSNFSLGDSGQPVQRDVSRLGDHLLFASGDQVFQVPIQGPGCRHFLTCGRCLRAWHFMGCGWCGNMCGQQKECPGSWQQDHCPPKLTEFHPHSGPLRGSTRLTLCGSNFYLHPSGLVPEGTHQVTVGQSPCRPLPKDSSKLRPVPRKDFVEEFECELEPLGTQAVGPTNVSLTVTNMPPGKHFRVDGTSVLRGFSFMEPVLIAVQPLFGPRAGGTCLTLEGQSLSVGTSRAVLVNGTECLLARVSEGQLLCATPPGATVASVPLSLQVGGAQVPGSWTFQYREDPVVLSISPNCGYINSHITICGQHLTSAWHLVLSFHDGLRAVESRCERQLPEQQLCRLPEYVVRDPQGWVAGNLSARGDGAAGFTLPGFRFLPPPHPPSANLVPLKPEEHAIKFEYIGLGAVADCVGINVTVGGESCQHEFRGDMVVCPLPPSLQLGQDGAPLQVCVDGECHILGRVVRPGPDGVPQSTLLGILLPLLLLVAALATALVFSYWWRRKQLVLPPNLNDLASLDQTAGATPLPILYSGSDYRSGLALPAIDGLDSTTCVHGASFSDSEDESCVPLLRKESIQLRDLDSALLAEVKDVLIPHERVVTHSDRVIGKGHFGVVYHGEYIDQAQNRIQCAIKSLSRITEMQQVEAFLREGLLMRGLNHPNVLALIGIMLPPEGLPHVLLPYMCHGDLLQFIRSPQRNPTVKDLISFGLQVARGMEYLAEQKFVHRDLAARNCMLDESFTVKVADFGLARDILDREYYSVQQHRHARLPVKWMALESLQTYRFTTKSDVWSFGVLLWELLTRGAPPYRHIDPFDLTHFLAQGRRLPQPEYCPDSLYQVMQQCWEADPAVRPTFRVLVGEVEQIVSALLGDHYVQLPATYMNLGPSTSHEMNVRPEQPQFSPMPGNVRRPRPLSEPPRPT
T3 sequence (Q9UM73 19-1620): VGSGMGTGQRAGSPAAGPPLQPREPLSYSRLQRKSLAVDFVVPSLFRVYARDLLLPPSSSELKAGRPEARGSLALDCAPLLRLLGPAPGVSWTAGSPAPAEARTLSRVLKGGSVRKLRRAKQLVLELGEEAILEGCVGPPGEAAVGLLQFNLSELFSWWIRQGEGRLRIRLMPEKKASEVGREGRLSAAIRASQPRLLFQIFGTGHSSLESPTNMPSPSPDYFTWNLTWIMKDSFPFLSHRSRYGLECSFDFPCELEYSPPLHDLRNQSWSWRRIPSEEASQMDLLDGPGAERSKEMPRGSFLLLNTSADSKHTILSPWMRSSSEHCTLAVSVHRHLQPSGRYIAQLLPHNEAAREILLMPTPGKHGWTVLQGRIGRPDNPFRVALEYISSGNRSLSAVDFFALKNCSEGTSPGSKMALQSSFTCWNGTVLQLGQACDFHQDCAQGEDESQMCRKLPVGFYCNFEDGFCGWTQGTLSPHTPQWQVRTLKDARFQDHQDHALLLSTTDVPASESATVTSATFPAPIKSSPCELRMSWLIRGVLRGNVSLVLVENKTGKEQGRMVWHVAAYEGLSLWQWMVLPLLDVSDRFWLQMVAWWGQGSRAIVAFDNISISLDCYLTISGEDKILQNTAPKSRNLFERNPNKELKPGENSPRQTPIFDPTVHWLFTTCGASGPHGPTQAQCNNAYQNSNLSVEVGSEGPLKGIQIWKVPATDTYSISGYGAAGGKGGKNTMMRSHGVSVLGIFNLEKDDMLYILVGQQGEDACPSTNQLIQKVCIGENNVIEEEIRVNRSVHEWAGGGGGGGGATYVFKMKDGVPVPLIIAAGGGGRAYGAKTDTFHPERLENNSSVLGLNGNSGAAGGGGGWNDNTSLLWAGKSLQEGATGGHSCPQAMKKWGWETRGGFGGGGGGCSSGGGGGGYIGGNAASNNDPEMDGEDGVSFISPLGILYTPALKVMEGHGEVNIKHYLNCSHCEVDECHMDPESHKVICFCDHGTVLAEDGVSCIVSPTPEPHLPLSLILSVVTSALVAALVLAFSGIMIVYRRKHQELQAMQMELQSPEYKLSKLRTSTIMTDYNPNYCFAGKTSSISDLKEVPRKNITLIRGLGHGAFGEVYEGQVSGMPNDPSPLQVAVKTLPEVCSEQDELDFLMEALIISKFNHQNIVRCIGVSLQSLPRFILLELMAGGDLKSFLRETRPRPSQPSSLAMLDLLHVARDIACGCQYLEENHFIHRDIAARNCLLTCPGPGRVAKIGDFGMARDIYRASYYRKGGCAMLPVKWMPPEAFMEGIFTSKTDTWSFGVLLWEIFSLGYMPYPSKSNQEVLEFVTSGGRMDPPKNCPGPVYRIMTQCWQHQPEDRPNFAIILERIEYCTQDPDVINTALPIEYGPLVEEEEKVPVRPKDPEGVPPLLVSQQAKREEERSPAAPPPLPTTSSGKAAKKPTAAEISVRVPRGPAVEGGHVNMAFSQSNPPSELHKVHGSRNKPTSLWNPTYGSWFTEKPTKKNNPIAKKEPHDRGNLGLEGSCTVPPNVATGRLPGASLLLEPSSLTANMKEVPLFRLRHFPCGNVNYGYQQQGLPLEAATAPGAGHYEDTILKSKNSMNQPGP
T5 sequence (P31751 whole entry): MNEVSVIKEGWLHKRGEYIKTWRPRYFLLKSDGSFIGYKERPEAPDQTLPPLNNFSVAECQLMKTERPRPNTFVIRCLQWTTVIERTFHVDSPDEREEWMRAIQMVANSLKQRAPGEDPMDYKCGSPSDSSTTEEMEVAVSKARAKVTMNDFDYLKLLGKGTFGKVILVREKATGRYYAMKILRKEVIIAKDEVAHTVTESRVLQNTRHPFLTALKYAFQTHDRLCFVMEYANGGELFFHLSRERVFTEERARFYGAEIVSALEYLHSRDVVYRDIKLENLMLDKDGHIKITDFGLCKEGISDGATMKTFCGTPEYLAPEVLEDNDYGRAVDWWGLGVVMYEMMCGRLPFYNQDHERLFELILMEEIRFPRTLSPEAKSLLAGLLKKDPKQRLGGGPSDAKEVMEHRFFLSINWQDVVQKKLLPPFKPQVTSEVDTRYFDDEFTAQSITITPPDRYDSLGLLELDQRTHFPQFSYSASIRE

Structure (SMILES) | residual kinase activity ([1]; 0.03 µM) | residual kinase activity ([1]; 0.3 µM) | residual kinase activity ([2]; 0.03 µM) | residual kinase activity ([2]; 0.3 µM) | residual kinase activity ([3]; 0.03 µM) | residual kinase activity ([3]; 0.3 µM) | residual kinase activity ([4]; 0.03 µM) | residual kinase activity ([4]; 0.3 µM) | residual kinase activity ([5]; 0.03 µM) | residual kinase activity ([5]; 0.3 µM) | residual kinase activity ([6]; 0.03 µM) | residual kinase activity ([6]; 0.3 µM) | residual kinase activity ([1]; 3 µM) | residual kinase activity ([2]; 3 µM) | residual kinase activity ([3]; 3 µM) | residual kinase activity ([4]; 3 µM) | residual kinase activity ([5]; 3 µM) | residual kinase activity ([6]; 3 µM)
COc1ccnc2[nH]cc(-c3cc(N)nc(N)c3)c12 [meriolin 16] | 119 % of control | 77 % of control | 106 % of control | 90 % of control | 104 % of control | 77 % of control | 92 % of control | 90 % of control | 98 % of control | 79 % of control | 87 % of control | 56 % of control | – | – | – | – | – | –
c1ccc(CNc2cc(-c3c[nH]c4ncccc34)ccn2)cc1 [meriolin 36] | – | 71 % of control | – | 66 % of control | – | 60 % of control | – | 98 % of control | – | 102 % of control | – | 64 % of control | 21 % of control | 26 % of control | 14 % of control | 76 % of control | 75 % of control | 26 % of control
